Results on 10 compounds are retold here after ChEMBL document CHEMBL1135051, “N-arylalkylpiperidines as high-affinity sigma-1 and sigma-2 receptor ligands: phenylpropylamines as potential leads for selective sigma-2 agents” (Bioorg Med Chem Lett, 2002).

Experiment [1] has as its target Sigma non-opioid intracellular receptor 1 (Rattus norvegicus, UniProt Q9R0C9). Put plainly: Binding affinity for sigma-1 receptor by displacing [3H]-(+) pentazocine.
Experiment [2] deals with Sigma 2 receptor. The experiment can be described thus: Binding affinity for sigma-2 receptor by displacing [3H]DTG in presence of dextrallorphan. Set-up: species or system Rattus norvegicus.

Chain of Sigma non-opioid intracellular receptor 1 (Q9R0C9 whole entry): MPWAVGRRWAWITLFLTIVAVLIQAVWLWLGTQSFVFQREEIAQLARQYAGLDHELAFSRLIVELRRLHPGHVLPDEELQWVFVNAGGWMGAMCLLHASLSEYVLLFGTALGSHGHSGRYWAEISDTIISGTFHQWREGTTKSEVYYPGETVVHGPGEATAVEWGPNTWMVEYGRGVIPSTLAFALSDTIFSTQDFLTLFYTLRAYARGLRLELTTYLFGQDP

In general, Ki refers to a measure of affinity in units of concentration, obtained from inhibition or displacement. For `c1ccc(CCCN2CCCCC2)cc1`, the inhibition constant Ki in experiment [1] was 143 nM; in experiment [2] it was 25 nM.
The matching figures for `c1ccc(CCCN2CCN(c3ccccn3)CC2)cc1`: 82.9 nM and 4.91 nM.
The matching figures for `c1ccc(CCN2CCc3ccccc3C2)cc1`: 5.9 nM and 57.3 nM.
The matching figures for `CC1CCN(CCCc2ccccc2)CC1`: 3.35 nM and 12.1 nM.
Consider `CC1CCN(CCc2ccccc2)CC1`, for which the values for the Ki in experiment [1] and in experiment [2] were 20.9 nM and 33.3 nM, respectively.
The matching figures for `CC1CCCN(CCc2ccccc2)C1` (stereo not given): 4.15 nM and 84.4 nM.
As for `c1ccc(CCCN2CCc3ccccc3C2)cc1`, the Ki in experiment [1] worked out at 13.9 nM; in experiment [2] it was 14.2 nM.
The matching figures for `c1ccc(CCN2CCN(c3ccccn3)CC2)cc1`: 326 nM and 119 nM.
Turning to `CC1CCCN(CCCc2ccccc2)C1` (stereo not given), the inhibitory constant (Ki) in experiment [1] is 5.25 nM; in experiment [2], 6.61 nM.
In the same order, the values of `c1ccc(CCN2CCCCC2)cc1` [1-PHENETHYLPIPERIDINE] are 88.5 nM and 112 nM.
